This passage reports vapor pressure results from patent US6864378B2, “Integrated continuous process for anhydro sugar alcohol manufacture” (E. I. du Pont de Nemours and Company, priority 2002, dated 2005).

This data set is classed as physicochemical. The text has this:
The reaction product obtained by processes such as the above, contains about 70 to 80% by weight isosorbide and 20 to 30% undesired reaction byproducts. The reaction product thus needs to be subjected to one or more separation steps, such as evaporation, distillation or chromatographic separation, to isolate the isosorbide. Chromatographic separation is disclosed in U.S. Patent Application No. 60/246038 (filed 6, Nov. 2000). Separation by vaporization or distillation is difficult because of the low vapor pressure of isosorbide. […] Evaporation or distillation at temperatures not much higher than about 140° C. is desirable to-minimize product degradation and obtain good purity isosorbide, but the recovery is poor. At higher temperatures, e.g., 170° C., more isosorbide is recovered, but it is of poorer quality.
The sorbitans, dimers, and polymer byproducts are all considerably higher boiling than isosorbide. For example, the vapor pressure of the sorbitans is only about 0.04 mm Hg at 140° C., about one-fiftieth that of isosorbide. The dimers are even less volatile, and the polymers are practically nonvolatile. Therefore, the water vapor volatilizes most of the dianhydro sugar alcohols but not such high boiling byproducts. […]

On to `O[C@@H]1CO[C@H]2[C@@H]1OC[C@@H]2O` [isosorbide, 1,4:3,6-dianhydrosorbitol], for which the vapor pressure was found to be 1.75 mm Hg.
